Reference: patent publication EP1101821A1, “NOVEL PROTEIN AND ITS DNA” (Takeda Chemical Industries, Ltd., priority 1998, dated 2000)

Biological target: recombinant human lung-derived phosphodiesterase V (Homo sapiens, UniProt O76074)
Test: Inhibitor screening system: [3H]cGMP SPA phosphodiesterase enzyme assay
Protocol: A 96-well microplate (OPTI Plate, Packard) received 10 µL of a buffer solution [0.5M Tris-HCl (pH7.5), 83 mM MgCl2, 17 mM EGTA], 10 µL of the recombinant human lung-derived phosphodiesterase V obtained in Example 3 (0.025 mg/ml), 65 µL of an ultrapure water, 5 µL of an inhibitor sample and 10 µL of [^3H]cGMP, and reacted at 30°C for 30 minutes. After completion of the reaction, 50 µL of a SPA beads solution [18 mg/ml Yttrium silicate beads, 18 mM ZnSO4] was added and allowed to stand at room temperature for about 20 minutes, and then subjected to a scintillation counting (Topcount, Packard).

Cc1c2c(c(-c3ccc(F)cc3)c3c4c(ccc13)OCO4)C(=O)NC2=O [Formula 1]
IC50: 2.29 nM
